Drawing on patent US12049439B2 (OrsoBio, Inc., priority 2018, dated 2024), this text covers EC50 for 24 molecules.

This assay relates to PC-3 cells. Kind of assay: PC-3 Oxygen Rate Consumption (OCR) Assay. Format: cell-based. The following applies: Homo sapiens, 0.05 h, medium with 2% FBS, OCR at 3-min post-injection normalized to % increase over DMSO-treated cells, concentration for half-maximal OCR increase, read-out: EC50-PC3-OCR-FBS-3min. Here is the method: PC-3 Oxygen Rate Consumption (OCR) Assay Procedure:
One day before the assay, PC-3 cells were seeded at 2.5×10^4 cells/160 μL/well in a 96-well XFe96 cell plate, part of a FlexPak containing a cell plate and a cartridge (Agilent, Sunnyvale, CA). The cells were incubated overnight at 37° C. in a 5% CO2 and 90% humidity incubator with F12K culture medium (ThermoFisher Scientific/Invitrogen, Grand Island, NY) containing 10% FBS and 1% penicillin/streptomycin. On the day of the assay, the cells were washed twice with 300 µL/well Medium A [XF assay medium (Agilent) supplemented 10 mM glucose, 1 mM pyruvate, and 2% fetal bovine serum (FBS)], and incubated with 175 µL/well Media A for 1 hr in a 37° C., non-CO2 incubator prior to the measurement of cellular respiration. Compounds of interests were prepared in 1:2 serial dilutions with 100% DMSO and then further diluted into 8× working stock with Media A prior to being loaded to Injection Port A on a XFe96 Analyzer (Agilent). Six replicates were used for each treatment. The cartridge was calibrated in the XFe96 Analyzer 30 minute prior to the measurement of cellular respiration. Basal levels of OCR were measured three times, each using a “3-minute mixing/3-minute measurement” program. The compound effect was measured immediately after compound injection from Injection Port A, and OCR was monitored continuously 10 times, each time using a “1-minute mixing/2-minute measurement” program for a total of 30 minutes post compound injection. The level of OCR at 3-min post-injection was normalized to % increase over DMSO-treated cells. The concentration of compound required to reach the half-maximal OCR increase was defined as EC50 Table 2 contains PC3 OCR EC50 values for the compounds disclosed.
`N#CC12CC(NC(=O)c3ccc(C(F)(F)F)cc3NS(=O)(=O)c3c(Cl)cc(Cl)cc3Cl)(C1)C2` [Example 40, N-(3-cyanobicyclo[1.1.1]pentan-1-yl)-2-((2,4,6-trichlorophenyl)sulfonamido)-4-(trifluoromethyl)benzamide]: the EC50 was determined as 6.58 µM.

`N#CC12CC(NC(=O)c3ccc(C(F)(F)F)cc3NS(=O)(=O)c3ccccc3)(C1)C2` [Example 41, N-(3-cyanobicyclo[1.1.1]pentan-1-yl)-2-(phenylsulfonamido)-4-(trifluoromethyl)benzamide]: the EC50 is 2.16 µM.

With `CN(C)S(=O)(=O)c1ccc(S(=O)(=O)Nc2cc(C(F)(F)F)ccc2C(=O)NC23CC(C#N)(C2)C3)cc1` [Example 42, N-(3-cyanobicyclo[1.1.1]pentan-1-yl)-2-((4-(N,N-dimethylsulfamoyl)phenyl)sulfonamido)-4-(trifluoromethyl)benzamide], the EC50 is 27.5 µM.

In the case of `O=C(NC12CC(c3ccccc3)(C1)C2)c1ccc(C(F)(F)F)cc1NS(=O)(=O)c1ccc(-n2cnnn2)cc1` [Example 43, 2-((4-(1H-tetrazol-1-yl)phenyl)sulfonamido)-N-(3-phenylbicyclo[1.1.1]pentan-1-yl)-4-(trifluoromethyl)benzamide], the EC50 is 2.99 µM.

As to `O=C(NC12CC(c3ccccc3)(C1)C2)c1ccc(C(F)(F)F)cc1NS(=O)(=O)c1ccc(S(=O)(=O)C(F)F)cc1` [Example 44, 2-((4-((difluoromethyl)sulfonyl)phenyl)sulfonamido)-N-(3-phenylbicyclo[1.1.1]pentan-1-yl)-4-(trifluoromethyl)benzamide], the 50% effective concentration (EC50) was determined as 1.16 µM.

`CS(=O)(=O)c1ccc(S(=O)(=O)Nc2cc(C(F)(F)F)ccc2C(=O)NC23CCC(CC2)C3)cc1` [Example 45, N-(bicyclo[2.2.1]heptan-1-yl)-2-((4-(methylsulfonyl)phenyl)sulfonamido)-4-(trifluoromethyl)benzamide]: the EC50 amounted to 5.45 µM.

For the molecule `CS(=O)(=O)c1ccc(S(=O)(=O)Nc2cc(Br)ccc2C(=O)NC23CC(C(F)(F)F)(C2)C3)cc1` [Example 46, 4-bromo-2-((4-(methylsulfonyl)phenyl)sulfonamido)-N-(3-(trifluoromethyl)bicyclo[1.1.1]pentan-1-yl)benzamide], the EC50 was found to be 3.48 µM.

Turning to `CS(=O)(=O)Nc1cc(Br)ccc1C(=O)NC12CC(C1)C2` [Example 47, N-(bicyclo[1.1.1]pentan-1-yl)-4-bromo-2-(methylsulfonamido)benzamide], the EC50 is 17.3 µM.

Regarding `CS(=O)(=O)Nc1cc(Br)ccc1C(=O)NC12CC(C(F)(F)F)(C1)C2` [Example 48, 4-bromo-2-(methylsulfonamido)-N-(3-(trifluoromethyl)bicyclo[1.1.1]pentan-1-yl)benzamide], the EC50 worked out at 5.81 µM.

With `CS(=O)(=O)Nc1cc(Br)ccc1C(=O)NC12CC(c3ccccc3)(C1)C2` [Example 49, 4-bromo-2-(methylsulfonamido)-N-(3-phenylbicyclo[1.1.1]pentan-1-yl)benzamide], the EC50 stood at 4.99 µM.

Regarding `O=C(NC12CC(C1)C2)c1ccc(F)cc1NS(=O)(=O)C1CC1` [Example 50, N-(bicyclo[1.1.1]pentan-1-yl)-2-(cyclopropanesulfonamido)-4-fluorobenzamide], the EC50 is not below 100 µM.

Take `NC(=O)c1ccc(S(=O)(=O)Nc2cc(C(F)(F)F)ccc2C(=O)NC23CC(c4ccccc4)(C2)C3)cc1` [Example 51, 2-((4-carbamoylphenyl)sulfonamido)-N-(3-phenylbicyclo[1.1.1]pentan-1-yl)-4-(trifluoromethyl)benzamide]: the EC50 came to 28.8 µM.

Turning to `NC(=O)c1ccc(S(=O)(=O)Nc2cc(C(F)(F)F)ccc2C(=O)NC23CC(C2)C3)cc1` [Example 52, N-(bicyclo[1.1.1]pentan-1-yl)-2-((4-carbamoylphenyl)sulfonamido)-4-(trifluoromethyl)benzamide], the EC50 is 200 µM.

For the molecule `NC(=O)c1ccc(S(=O)(=O)Nc2cc(C(F)(F)F)ccc2C(=O)NC23CC(C(F)(F)F)(C2)C3)cc1` [Example 53, 2-((4-carbamoylphenyl)sulfonamido)-4-(trifluoromethyl)-N-(3-(trifluoromethyl)bicyclo[1.1.1]pentan-1-yl)benzamide], the EC50 turned out to be 46.1 µM.

For the molecule `CC(C)S(=O)(=O)Nc1cc(C(F)(F)F)ccc1C(=O)NC12CC(c3ccccc3)(C1)C2` [Example 54, 2-((1-methylethyl)sulfonamido)-N-(3-phenylbicyclo[1.1.1]pentan-1-yl)-4-(trifluoromethyl)benzamide], the EC50 was determined as 1.22 µM.

As for `CC(C)S(=O)(=O)Nc1cc(C(F)(F)F)ccc1C(=O)NC12CC(C1)C2` [Example 55, N-(bicyclo[1.1.1]pentan-1-yl)-2-((1-methylethyl)sulfonamido)-4-(trifluoromethyl)benzamide], the 50% effective concentration (EC50) amounted to 6.32 µM.

For `CC(C)S(=O)(=O)Nc1cc(C(F)(F)F)ccc1C(=O)NC12CC(C(F)(F)F)(C1)C2` [Example 56, 2-((1-methylethyl)sulfonamido)-4-(trifluoromethyl)-N-(3-(trifluoromethyl)bicyclo[1.1.1]pentan-1-yl)benzamide], the EC50 is 0.825 µM.

Turning to `CC(C)S(=O)(=O)Nc1cc(C(F)(F)F)ccc1C(=O)NC12CCC(C#N)(CC1)CC2` [Example 57, N-(4-cyanobicyclo[2.2.2]octan-1-yl)-2-((1-methylethyl)sulfonamido)-4-(trifluoromethyl)benzamide], the EC50 was 8.09 µM.

Consider `NS(=O)(=O)c1ccc(S(=O)(=O)Nc2cc(C(F)(F)F)ccc2C(=O)NC23CC(C(F)(F)F)(C2)C3)cc1` [Example 58, 2-((4-sulfamoylphenyl)sulfonamido)-4-(trifluoromethyl)-N-(3-(trifluoromethyl)bicyclo[1.1.1]pentan-1-yl)benzamide], for which the EC50 amounted to 63.4 µM.

With `O=C(NC12CC(C(F)(F)F)(C1)C2)c1ccc(C(F)(F)F)cc1NS(=O)(=O)c1cccnc1` [Example 59, 2-(pyridine-3-sulfonamido)-4-(trifluoromethyl)-N-(3-(trifluoromethyl)bicyclo[1.1.1]pentan-1-yl)benzamide], the EC50 amounted to 1.84 µM.

Turning to `CC(C)S(=O)(=O)Nc1cc(C(F)(F)F)ccc1C(=O)NC12CC(C#N)(C1)C2` [Example 60, N-(3-cyanobicyclo[1.1.1]pentan-1-yl)-2-((1-methylethyl)sulfonamido)-4-(trifluoromethyl)benzamide], the EC50 was determined as 6.22 µM.

Regarding `Cc1ccc(C(=O)NC23CC(C(F)(F)F)(C2)C3)c(NS(=O)(=O)C(C)C)c1` [Example 61, 4-methyl-2-((1-methylethyl)sulfonamido)-N-(3-(trifluoromethyl)bicyclo[1.1.1]pentan-1-yl)benzamide], the EC50 is not below 100 µM.

As to `Cc1ncc(S(=O)(=O)Nc2cc(C(F)(F)F)ccc2C(=O)NC23CC(C(F)(F)F)(C2)C3)s1` [Example 62, 2-((2-methylthiazole)-5-sulfonamido)-4-(trifluoromethyl)-N-(3-(trifluoromethyl)bicyclo[1.1.1]pentan-1-yl)benzamide], the EC50 is 1.53 µM.

With `CC1(S(=O)(=O)Nc2cc(C(F)(F)F)ccc2C(=O)NC23CC(C(F)(F)F)(C2)C3)CC1` [Example 63, 2-((1-methylcyclopropane)-1-sulfonamido)-4-(trifluoromethyl)-N-(3-(trifluoromethyl)bicyclo[1.1.1]pentan-1-yl)benzamide], the EC50 came out at 0.937 µM.
